Experimental data taken from article PMC8507198 (Poultry Science, 2021).

Tests used:
chicken NPSR1 [1] = experiment: pGL3-NFAT-RE-luciferase reporter assay; format: cell-based; settings: 2-APB (100 μM) added 0.5 h before cNPS20 (10 nM, 6 h); CHO cells expressing cNPSR1; P<0.01 vs. peptide treatment; Figure 4D
chicken NPSR1 [2] = experiment: pGL3-CRE-luciferase reporter assay; format: cell-based; settings: H89 (10 μM) added 0.5 h before cNPS20 (10 nM, 6 h); CHO cells expressing cNPSR1; P<0.01 vs. peptide treatment; Figure 4E
rats [3] = settings: administration of NPS, ref Zhang et al., 2014; cited from earlier work
rodents = settings: central administration, cited from earlier work
rats [4] = settings: ref Smith et al., 2006; cited from earlier work
chickens = settings: ref Smith et al., 2006; cited from earlier work

For `NCCOB(c1ccccc1)c1ccccc1` [2-APB], the “Effect on cNPS20-induced NFAT-RE luciferase activity” value (chicken NPSR1 [1]) was “could block cNPS20-induced luciferase activity of CHO cells expressing cNPSR1”.

For `O=S(=O)(NCCNC/C=C/c1ccc(Br)cc1)c1cccc2cnccc12` [H89], the “Effect on cNPS20-induced CRE luciferase activity” value (chicken NPSR1 [2]) was “significantly inhibited”.

In the case of “neuropeptide S (SFRNGVGSGIKKTSFRRAKS; printed: Ser-Phe-Arg-Asn-Gly- Val-Gly-Ser-Gly-Ile-Lys-Lys-Thr-Ser-Phe-Arg-Arg-Ala-Lys-Ser) [NPS]”, the “Anxiolytic and antinociceptive effects” value (rats [3]) is given as “anxiolytic, and antinociceptive effects in rats”, the “Length of ketamine-induced anesthesia” value (rodents; ref Kushikata et al., 2011) is given as “decreased the length of ketamine-induced anesthesia” and the Memory (rodents; ref Okamura et al., 2011) is given as “enhanced memory”. For the same molecule, the Anxiety-related effect (rodents; ref Xu et al., 2004) was “anxiolytic effects”, the “ACTH and corticosterone secretion (hypothalamic-pituitary-adrenal axis activity)” value (rats [4]) was “stimulation of adrenocorticotropic hormone (ACTH) and corticosterone secretion in rats” and the “Hypothalamus-pituitary-adrenal axis and food intake, rats” value (rats [4]) was “stimulate the hypothalamus-pituitary-adrenal axis and inhibit food intake in rats and chickens”. For the same molecule, the “Hypothalamus-pituitary-adrenal axis and food intake, chickens” value (chickens) was “stimulate the hypothalamus-pituitary-adrenal axis and inhibit food intake in rats and chickens”.
